Where two headings read alike, the source gives them in different places.
What was measured:
[1] = Concentration of the conjugates in the blood after oral administration; type: in vivo, Sprague-Dawley rats; conditions: equimolar dose, 4, 8, 12 h, Supplementary Figure S4
Description: Male Sprague-Dawley rats fasted for 24 h except for water. […] At 4, 8, and 12 h after the oral treatment, the plasma (0.3 mL) was obtained from the blood samples (collected via cardiac puncture) centrifuged at 10,000× g at 4 °C for 10 min. The plasma (0.25 mL) was extracted with EA (0.7 mL), and the organic layer (0.5 mL) was evaporated and dissolved in mobile phase A or B (0.1 mL). After filtration through a membrane filter (0.45 μm), the filtrate (20 μL) was injected to HPLC. To determine the concentrations of SAR and RAS in the blood, MeOH (0.9 mL) was added to the plasma (0.1 mL) and centrifuged at 10,000× g at 4 °C for 10 min. After filtration of the supernatants through a membrane filter (0.45 μm), the filtrate (20 μL) was injected to HPLC.

GSK3β = test: p-GS level in the inflamed distal colon (Western blot); type: in vivo, Sprague-Dawley rats; conditions: oral once daily for 6 days
Description: (§1) Experimental colitis was induced in rats as previously described. […] The rats in each group were treated orally once daily, and the medication began three days after the induction of inflammation, and continued for six days. Twenty-four hours after the last medication, the anticolitic effects of drugs were evaluated assessing macroscopic and microscopic indices. Colonic-damage scores (CDS) were assigned using the modified scoring system shown in Supplementary Table S1. Colonic damage was scored using 4 independent observers blinded to the treatment conditions. Myeloperoxidase (MPO) activity was determined in the inflamed distal colon (4 cm) as previously described.
To prepare samples for Western blot analysis, tissue (distal colon) samples (0.2 g) were minced and homogenized in 2.0 mL of pre-chilled radioimmunoprecipitation assay (RIPA) buffer, which was agitated on ice for 0.5 h, and then centrifuged at 10,000× g at 4 °C for 10 min. The centrifuged lysates were subjected to protein quantification using the bicinchoninic acid reagent (Thermo Fisher Scientific, Waltham, MA, USA). […] The Western blot images were quantified using Image Lab software (version 5.2 build 14; Bio-Rad, Hercules, CA, USA). The mean of the quantified values was presented with the Western blot images in the figures (n = 3 for cell experiments, n = 5 for animal experiments).

[2] = Distribution coefficient (log D6.8), 1-octanol/pH 6.8 isotonic phosphate buffer; type: physicochemical; conditions: 1-octanol/isotonic phosphate buffer (pH 6.8)
Description: To measure distribution coefficients of test compounds in 1-octanol/pH 6.8 isotonic phosphate buffer system, 1-octanol and pH 6.8 isotonic phosphate buffer was pre-saturated with each other. […] Distribution of test compounds in the organic phase/aqueous phase was determined by quantifying the concentration of each test compound in the organic or aqueous phase using a UV-Vis spectrophotometer (Shimadzu, Tokyo, Japan) at 263 nm. The following equation was employed to calculate the distribution coefficients (log D6.8). In the equation, CO is the initial concentration of a compound in the 1-octanol phase or aqueous phase; Cw is the equilibrium concentration of a compound in the aqueous phase; and COc is the equilibrium concentration of a compound in 1-octanol: log D6.8=log(COc/CW)=log(COc/(CO−COc]

[3] = Incubation in the cecal contents of rats (conversion to RLZ); type: in vitro ADME, rat; conditions: for conversion to RLZ in cecal contents (in words): 1 mM, 10% cecal contents, anaerobic
Description: (§2) Male Sprague-Dawley rats (250–260 g) were euthanized using CO2 gas, collecting the intestinal tract contents separately from the small intestine and cecum. The cecal contents were collected in an atmospheric bag (AtmosBag, Sigma, St. Louis, MO, USA) filled with N2 gas. The contents were suspended in pH 6.8 isotonic phosphate buffer (20%, w/v). To 5 mL of the cecal and small intestinal suspensions, each solution (5 mL) of RAS, SAR, and SGR (2.0 mM) dissolved of pH 6.8 isotonic phosphate buffer was added, and then incubated at 37 °C. Incubation with the cecal contents was conducted in the bag filled with N2 gas. A 0.5 mL portion of the mixtures was transferred to a microtube, followed by centrifugation at 10,000× g at 4 °C for 10 min. Supernatants (0.3 mL) were subjected to extraction with EA (0.3 mL) and subsequent centrifugation at 10,000× g at 4 °C for 7 min. The organic layer (0.2 mL) transferred to a new microtube was evaporated, followed by the addition of mobile phase A (0.2 mL).

DNBS-induced rat colitis = test: DNBS-induced rat colitis, anticolitic effects; type: in vivo, Sprague-Dawley rats
Description: as §1
To prepare samples for Western blot analysis, tissue (distal colon) samples (0.2 g) were minced and homogenized in 2.0 mL of pre-chilled radioimmunoprecipitation assay (RIPA) buffer, which was agitated on ice for 0.5 h, and then centrifuged at 10,000× g at 4 °C for 10 min. The centrifuged lysates were subjected to protein quantification using the bicinchoninic acid reagent (Thermo Fisher Scientific, Waltham, MA, USA). SDS-PAGE on a 7.5 or 10% gel was used for Western blot analysis of tissue lysates. To detect glycogen synthase (GS), phosphorylated GS (p-GS), cyclooxygenase (COX)-2, and inducible nitric oxide synthase (iNOS), anti-GS (Santa Cruz Biotechnology, Dallas, TX, USA), anti-p-GS (Cell Signaling Technology, Danvers, MA, USA), anti-COX-2 (sc-365374, Santa Cruz Biotechnology), and anti-iNOS (NOS-2) antibody (sc-7271, Santa Cruz Biotechnology) were used. SuperSignal chemiluminescence substrate (Thermo Fisher Scientific, Waltham, MA, USA) was used to visualize bands. α-Tubulin (Santa Cruz Biotechnology) was used as a loading control. The Western blot images were quantified using Image Lab software (version 5.2 build 14; Bio-Rad, Hercules, CA, USA). The mean of the quantified values was presented with the Western blot images in the figures (n = 3 for cell experiments, n = 5 for animal experiments).
ELISA kits were used to determine the level of CINC-3 and IL-10 in the inflamed distal colon as described previously. The ELISA was performed according to the manufacturer’s instructions.

[4] = RLZ concentration in blood (plasma) after oral administration; type: in vivo, Sprague-Dawley rats
Description: The plasma (0.25 mL) was extracted with EA (0.7 mL), and the organic layer (0.5 mL) was evaporated and dissolved in mobile phase A or B (0.1 mL). After filtration through a membrane filter (0.45 μm), the filtrate (20 μL) was injected to HPLC. To determine the concentrations of SAR and RAS in the blood, MeOH (0.9 mL) was added to the plasma (0.1 mL) and centrifuged at 10,000× g at 4 °C for 10 min. After filtration of the supernatants through a membrane filter (0.45 μm), the filtrate (20 μL) was injected to HPLC.

[5] = Incubation in the small intestinal contents of rats; type: in vitro ADME; conditions: rat small intestinal contents; for change in concentration in small intestinal contents: 12 h; for release of RLZ in the small intestinal contents: Supplementary Figure S2
Description: as §2

Caco-2 cell monolayer = test: Cell permeability assay using Caco-2 monolayers; type: in vitro ADME; conditions: 500 µM apical, up to 24 h, compared with RAS
Description: Caco-2 cells (4 × 10^5 per insert) were seeded in Transwell 6-well inserts with a pore size of 0.4 μm (SPL Inc., Houston, TX, USA). DMEM containing 1% penicillin/streptomycin was added to the basolateral (3.0 mL) and apical (insert) compartments (2.0 mL). The cells were grown until the cell monolayer’s transepithelial electrical resistance value (EMD Millipore, Billerica, MA, USA) reached 2000 Ω.cm^2. […] At appropriate time intervals, the drug concentration in the basolateral compartment was determined using HPLC.

[6] = Chemical stability in pH 1.2 and pH 6.8 buffers; type: physicochemical; conditions: 0.1 mM, 12 h
Description: To test the chemical stabilities of SAR and SGR, the two compounds (0.1 mM) were incubated for 12 h in pH 1.2 HCl-NaCl buffer and pH 6.8 isotonic phosphate buffer, and change in the drug concentrations was monitored using HPLC analysis.

[7] = 1-octanol/pH 6.8 buffer; cited from earlier work
[8] = cited from earlier work
[9] = SAR L and H doses, dose-dependent, Western blot
[10] = oral once daily for 6 days, ELISA

Structure (SMILES)	conjugate (prodrug) in the blood [1]	level of p-GS in the inflamed colon (GSK3β)	melting point	logD at 12 h [2]	conversion to RLZ in cecal contents (in words) [3]	level of IL-10 in the inflamed colon (DNBS-induced rat colitis; [10])	change in concentration in small intestinal contents [5]	change in concentration in buffer solutions [6]	release of RLZ in the small intestinal contents [5]	also measured
O=C(O)CCC(=O)N[C@@H](CC(=O)O)C(=O)Nc1nc2ccc(OC(F)(F)F)cc2s1 [SAR, (N-succinyl-L-aspart-1-yl)riluzole]	not detectable	substantially diminished	202 °C (dec.)	-2.1	readily converted to RLZ in a time-dependent manner	further augmented	No significant change	No significant change	–	AR detected during incubation of SAR with the cecal contents ([3]; cecal contents): no AR was detected; MPO activity in the inflamed distal colon (DNBS-induced rat colitis; SAR L and H doses, dose-dependent): lowered; CINC-3 level in the inflamed distal colon (DNBS-induced rat colitis; SAR L and H doses, dose-dependent, ELISA): lowered; COX-2 level in the inflamed distal colon (DNBS-induced rat colitis; [9]): lowered; iNOS level in the inflamed distal colon (DNBS-induced rat colitis; [9]): lowered; colonic damage and inflammation compared with SSZ (DNBS-induced rat colitis; SAR even at lower dose vs SSZ 30 mg/kg): more effective than SSZ; all anticolitic indices compared with RAS (DNBS-induced rat colitis; equimolar dose (equivalent to 10 mg/kg RLZ)): significantly superior to RAS; colonic damage (CDS, H&E staining) (DNBS-induced rat colitis; oral once daily for 6 days, SAR equivalent to 5 (L) and 10 (H) mg/kg RLZ): mitigated the pathological state of the inflamed colon at both doses; systemic absorption of RLZ (RLZ in blood, in words) ([4]; oral SAR 19.2 mg/kg): barely detectable; maximal plasma concentration of RLZ relative to oral RAS ([4]; oral, equimolar dose): approximately one-seventh; permeation through Caco-2 cell monolayer (Caco-2 cell monolayer): less efficient than RAS
N[C@@H](CC(=O)O)C(=O)Nc1nc2ccc(OC(F)(F)F)cc2s1 [AR, N-(L-aspart-1-yl)riluzole]	–	–	163 °C	0.8	conversion percentage to RLZ was lower than that of SAR	–	–	–	released a substantial amount of RLZ	–
O=C(O)c1cc(/N=N/c2nc3ccc(OC(F)(F)F)cc3s2)ccc1O [RAS, reference compound]	detected	substantially diminished	–	–	–	further augmented	–	–	–	peak blood concentration of RLZ relative to that after oral RLZ ([4]; oral, equimolar doses (10 mg/kg RLZ)): approximately one-fifth; distribution coefficient (log D6.8) [7]: 2.1; peak blood concentration of RLZ relative to that after oral RLZ [8]: approximately one-fifth
O=C(O)CCC(=O)N[C@@H](CCC(=O)O)C(=O)Nc1nc2ccc(OC(F)(F)F)cc2s1 [SGR, (N-succinyl-L-glutam-1-yl)riluzole]	–	–	–	-2	resistant to cecal conversion of RLZ	–	No significant change	No significant change	–	–
N[C@@H](CCC(=O)O)C(=O)Nc1nc2ccc(OC(F)(F)F)cc2s1 [GR, N-(L-glutam-1-yl)riluzole]	–	–	–	1	–	–	–	–	released a substantial amount of RLZ	–
